These results are taken from US9612238B2 (priority 2011, dated 2017).

The test system of series [1] is RML scrapie-infected PK1 cells. In kind it is cell-based. The conditions noted are these: 1 μg/ml PIPLC, 26 hours.
Another series has as its system cell surface PrP. The conditions noted are these: 1 μg/ml.
Series [2] has as its system cell surface PrP on N2a cells. In kind it is cell-based.
The test system of the next series is 22L prions. In kind it is cell-based. The conditions noted are these: for rebound of infectivity after treatment cessation (22L): 18 days post-infection, 6 days after treatment cessation; for infection of PK1 neuroblastoma cells by 22L prions (PrPSc western blot): pretreated 3 days, treated 12 days after infection, 9 and 18 days post-infection. (In general: In western blotting, separated proteins are transferred to a membrane and probed.)

A further series concerns RML prions. In kind it is cell-based. The conditions noted are these: for rebound of infectivity after treatment cessation (RML): 18 days post-infection, 6 days after treatment cessation; for infection of PK1 neuroblastoma cells by RML prions (PrPSc western blot): pretreated 3 days, treated 12 days after infection, 9 and 18 days post-infection.
In series [3] the test system is cell surface PrP on LD9 cells. In kind it is cell-based. The conditions noted are these: 24 hours.

“Also recorded” adds a separate entry of the source.

Consider “phosphatidylinositol phospholipase C [PIPLC]”, for which, in series [1], the “RI200 (reciprocal of the cell number required to give 200 spots)” value is reported as 5×10^−4. Besides, the inhibition of infection in series [1] (from RI200 values) is 85%. Also, in the series with cell surface PrP, the “cell surface PrP removed” value is on record as “approximately 50%”.

On to `CC[C@@H](C(=O)[C@@H](C)[C@@H](O)[C@H](C)CCc1ccc(C)c(O)c1C(=O)O)[C@H]1O[C@](CC)([C@H]2CC[C@](O)(CC)[C@H](C)O2)C[C@@H]1C` [Lasalocid sodium], for which, in series [2], the “reduction of cell surface PrP, confirmation by secondary screening” value (shortened to “reduction of cell surface PrP”) was “confirmed; also recorded: active”.

For the compound `CC[C@H]1CN2CCc3cc(OC)c(OC)cc3[C@@H]2C[C@@H]1C[C@H]1NCCc2cc(OC)c(OC)cc21` [Emetine], the “reduction of cell surface PrP” value in series [2] is reported as “active”.

As to `COc1ccc(CCN2CCC(Nc3nc4ccccc4n3Cc3ccc(F)cc3)CC2)cc1` [Astemizole], in the series on 22L prions, the “rebound of infectivity after treatment cessation (22L)” value was “no rebound of infectivity” and the “infection of PK1 neuroblastoma cells by 22L prions (PrPSc western blot)” value is listed as “block infection”. In the series on RML prions, the “rebound of infectivity after treatment cessation (RML)” value is on record as “no rebound of infectivity” and the “infection of PK1 neuroblastoma cells by RML prions (PrPSc western blot)” value was “block infection”. Moreover, the “reduction of cell surface PrP” value in series [2] is “confirmed; also recorded: active”.

For `C=CC[C@@H]1/C=C(\C)C[C@H](C)C[C@H](OC)[C@H]2O[C@@](O)(C(=O)C(=O)N3CCCC[C@H]3C(=O)O[C@H](/C(C)=C/[C@@H]3CC[C@@H](O)[C@H](OC)C3)[C@H](C)[C@@H](O)CC1=O)[C@H](C)C[C@@H]2OC` [Tacrolimus], in the series on 22L prions, the “rebound of infectivity after treatment cessation (22L)” value is on record as “no rebound of infectivity” and the “infection of PK1 neuroblastoma cells by 22L prions (PrPSc western blot)” value is “block infection”. In addition, in the series on RML prions, the “rebound of infectivity after treatment cessation (RML)” value is given as “no rebound of infectivity” and the “infection of PK1 neuroblastoma cells by RML prions (PrPSc western blot)” value was “block infection”. Moreover, the “reduction of cell surface PrP” value in series [2] was “confirmed”. Further, in series [2] (at 30 (unit not given)), the “reduction of PrP in the secondary assay, IN Cell analyzer quantification” value is listed as 73% and the “reduction of PrP in the secondary assay, flow cytometry” value was 75%. In addition, the “reduction of PrP expression in the primary assay” value in series [3] (20 μM) came out at 70%.

On to `C[C@H]1CCC/C=C/[C@@H]2C[C@H](O)C[C@H]2[C@H](O)/C=C/C(=O)O1` [BFA, Brefeldine A], for which the “PrP expression, percentage of the DMSO control” value in series [3] (384-well screening plates) is given as 0%. For the same compound, in the series with LD9 cells, the “toxicity to LD9 cells (cell viability, CELLTITER-GLO)” value is “none of the tested doses of BFA were toxic”.

Take `CC[C@@]1([C@@H]2O[C@@H]([C@H]3O[C@@](O)(CO)[C@H](C)C[C@@H]3C)C[C@@H]2C)CC[C@H]([C@]2(C)CC[C@]3(C[C@H](O)[C@@H](C)[C@@H]([C@@H](C)[C@@H](OC)[C@H](C)C(=O)O)O3)O2)O1` [Monensin]: the “reduction of cell surface PrP” value in series [2] is “active”.

Take `CCCCCCCCCCCCCCCC[N+](C)(C)C` [cetrimonium]: the “reduction of cell surface PrP” value in series [2] was “active”.
